Assay results taken from patent publication US20140179681A1, “METHODS AND COMPOSITIONS OF TARGETED DRUG DEVELOPMENT” (priority 2010, published 2014).

Assays:
MDBK line = assay: MTT Cell Proliferation Assay, MDBK cells; format: cell-based, bovine; settings: Bos taurus, MDBK, 72 h, Table 10; second of x/y(ratio): MDBK; three day treatment; unit not printed (doses in μM); read-out: MTT assay (second value)
How it was run: (§1)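 Each concentration ran in quadruplicate across duplicate plates, with compounds serially diluted in DMSO and delivered at 0.5% DMSO in 0.5% FBS medium for 3 days.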

EGFR = biological target: T1, EGFR (Homo sapiens, UniProt P00533); assay: EGFR in-cell Western (ICW) screening protocol (EGFR inhibition assay); format: cell-based; settings: Table 10; % Inhibition of EGF dependent EGFR phosphorylation in A431 cells; compound 125 μM in assay
T1 construct: host or cells: A431
T1 sequence (P00533 25-1210): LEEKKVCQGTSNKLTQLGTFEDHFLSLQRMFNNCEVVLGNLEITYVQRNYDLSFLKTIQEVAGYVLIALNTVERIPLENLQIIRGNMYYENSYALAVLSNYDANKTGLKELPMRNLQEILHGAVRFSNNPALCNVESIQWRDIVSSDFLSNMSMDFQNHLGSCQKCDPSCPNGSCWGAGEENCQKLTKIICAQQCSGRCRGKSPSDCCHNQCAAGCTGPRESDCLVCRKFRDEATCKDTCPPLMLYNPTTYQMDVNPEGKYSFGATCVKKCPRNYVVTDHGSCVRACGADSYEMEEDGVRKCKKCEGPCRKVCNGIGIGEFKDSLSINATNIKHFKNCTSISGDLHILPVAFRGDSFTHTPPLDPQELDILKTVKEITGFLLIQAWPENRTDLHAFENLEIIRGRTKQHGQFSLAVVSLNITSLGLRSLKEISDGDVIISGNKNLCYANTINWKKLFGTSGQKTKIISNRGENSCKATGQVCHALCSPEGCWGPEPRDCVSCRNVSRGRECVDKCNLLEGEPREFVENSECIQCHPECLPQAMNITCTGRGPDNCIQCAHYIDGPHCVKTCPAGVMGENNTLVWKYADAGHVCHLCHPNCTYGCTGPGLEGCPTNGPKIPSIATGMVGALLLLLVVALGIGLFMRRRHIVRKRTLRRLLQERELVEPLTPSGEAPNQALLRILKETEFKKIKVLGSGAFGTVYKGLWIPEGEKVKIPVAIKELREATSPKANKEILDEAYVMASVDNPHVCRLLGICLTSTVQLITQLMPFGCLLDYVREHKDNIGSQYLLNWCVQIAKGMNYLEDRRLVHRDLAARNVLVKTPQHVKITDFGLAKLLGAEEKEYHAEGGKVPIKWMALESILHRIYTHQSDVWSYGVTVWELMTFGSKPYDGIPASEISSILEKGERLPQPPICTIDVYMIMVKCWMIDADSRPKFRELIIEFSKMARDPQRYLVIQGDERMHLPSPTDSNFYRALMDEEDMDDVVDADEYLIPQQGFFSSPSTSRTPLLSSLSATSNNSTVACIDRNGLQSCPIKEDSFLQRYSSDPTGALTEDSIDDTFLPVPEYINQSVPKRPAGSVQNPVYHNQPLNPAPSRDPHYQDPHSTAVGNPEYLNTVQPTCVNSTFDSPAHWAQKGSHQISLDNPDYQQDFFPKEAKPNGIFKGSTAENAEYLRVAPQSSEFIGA
How it was run: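 In-cell Western read-out: fixed A431 cells were co-stained for total EGFR and phospho-EGFR (Tyr1173; some runs Tyr1045). Before fixation, cells were serum-starved for 2 h, exposed to compound for 4 h, then given EGF for 10 min, usually at 10 ng/ml final (6.6 or 12.5 ng/ml in some runs).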

[1] = tested on: epithelial carcinoma A431 cell line; assay: MTT Cell Proliferation Assay, A431 cells; format: cell-based; settings: Homo sapiens, A-431, 72 h, Table 10; first of x/y(ratio): A431; three day treatment; unit not printed (doses in μM); read-out: MTT assay (first value)
How it was run: as §1

Row | ICW assay (EGFR) | IC50 [1] [µM] | SMILES | IC50 (MDBK line) [µM]
1 | 79.1185 | 5.59 | Cc1cccc(NC(=S)Nc2ccc(S(=O)(=O)Nc3ccc(Cl)c(Cl)c3)cc2)c1 [AD4-12442] | 5.76
2 | 44.7896 | 6.71 | CCOc1ccccc1NC(=S)Nc1ccc(S(=O)(=O)Nc2ccc(Cl)c(Cl)c2)cc1 [AD4-12443] | 6.91
3 | 42.5115 | 6.33 | Cc1ccc(NC(=S)Nc2ccc(S(=O)(=O)Nc3cc(Cl)cc(Cl)c3)cc2)cc1 [AD4-12460] | 5.61
4 | 53.1391 | 4.06 | Cc1cc(C)cc(NC(=S)Nc2ccc(S(=O)(=O)Nc3cc(Cl)cc(Cl)c3)cc2)c1 [AD4-12461] | 5.91
5 | 31.3476 | 9.92 | CCOc1ccccc1NC(=S)Nc1ccc(S(=O)(=O)Nc2c(C)cc(C)cc2C)cc1 [AD4-12465] | 6.54
6 | 77.7928 | 4.04 | CCC(C)c1ccc(NC(=S)Nc2ccc(S(=O)(=O)Nc3ccc(OC)cc3)cc2)cc1 (stereo not drawn) [AD4-12468] | 5.41
7 | 64.2647 | 6.23 | Cc1cccc(NC(=S)Nc2ccc(S(=O)(=O)Nc3cc(Cl)cc(Cl)c3)cc2)c1 [AD4-12472] | 5.42
8 | 44.2167 | 6.65 | Cc1ccccc1NS(=O)(=O)c1ccc(NC(=S)Nc2ccc(F)c(Cl)c2)cc1 [AD4-12477] | 5.44
9 | 42.006 | 10.4 | COc1ccc(NC(=S)Nc2ccc(S(=O)(=O)Nc3cc(Cl)cc(Cl)c3)cc2)cc1OC [AD4-12481] | 11
10 | 28.3382 | 6.54 | COc1cc(NC(=S)Nc2ccc(S(=O)(=O)Nc3cc(Cl)cc(Cl)c3)cc2)cc(OC)c1 [AD4-12482] | 6.05
11 | 33.3993 | 6.98 | COc1ccc(C)cc1NC(=S)Nc1ccc(S(=O)(=O)Nc2ccc(Cl)cc2)cc1 [AD4-12485] | 7.19
12 | 84.5602 | 6.45 | Cc1ccccc1NS(=O)(=O)c1ccc(NC(=S)Nc2cccc(C(F)(F)F)c2)cc1 [AD4-12487] | 5.5
13 | 112.965 | 5.64 | O=S(=O)(Nc1ccc(Cl)cc1)c1ccc(NC(=S)Nc2cccc(Cl)c2)cc1 [AD4-12494] | 5.71
14 | 26.0767 | 6.99 | COc1ccc(C)cc1NC(=S)Nc1ccc(S(=O)(=O)Nc2cc(Cl)cc(Cl)c2)cc1 [AD4-12499] | 6.58
15 | 71.3823 | 4.06 | CCCCc1ccc(NC(=S)Nc2ccc(S(=O)(=O)Nc3ccc(Cl)cc3)cc2)cc1 [AD4-12501] | 4.06
16 | 25.1182 | 6.97 | COc1ccccc1NC(=S)Nc1ccc(S(=O)(=O)Nc2ccc(Cl)cc2)cc1 [AD4-12502] | 5.46
17 | 79.4624 | 4.05 | CC(C)c1ccc(NC(=S)Nc2ccc(S(=O)(=O)Nc3ccc(Cl)cc3)cc2)cc1 [AD4-12503] | 5.43
18 | 118.46 | 11.1 | O=S(=O)(Nc1ccc(Cl)cc1)c1ccc(NC(=S)Nc2ccc(Br)cc2)cc1 [AD4-12504] | 15.6
19 | 93.3284 | 5.69 | Cc1ccc(NC(=S)Nc2ccc(S(=O)(=O)Nc3ccc(Cl)cc3)cc2)cc1Cl [AD4-12505] | 6.02
20 | 140.975 | 5.49 | O=S(=O)(Nc1cc(Cl)cc(Cl)c1)c1ccc(NC(=S)Nc2cccc(C(F)(F)F)c2)cc1 [AD4-12509] | 5.24

Row | ICW assay (EGFR) | IC50 [1] [µM] | SMILES | IC50 (MDBK line) [µM]
21 | 28.9126 | 6.4 | Cc1cc(C)cc(NC(=S)Nc2ccc(S(=O)(=O)Nc3ccc(Cl)cc3)cc2)c1 [AD4-12512] | 5.83
22 | 31.5308 | 30.4 | COc1ccc(NC(=S)Nc2ccc(S(=O)(=O)Nc3ccccc3C)cc2)c(OC)c1 [AD4-12517] | 20
23 | 45.7824 | 6.99 | CCOc1ccccc1NC(=S)Nc1ccc(S(=O)(=O)Nc2ccc(Cl)cc2)cc1 [AD4-12521] | 6.54
24 | 123.893 | 6.2 | Cc1ccc(NC(=S)Nc2ccc(S(=O)(=O)Nc3cc(Cl)cc(Cl)c3)cc2)cc1Cl [AD4-12522] | 5.33
25 | 34.1311 | 14.8 | COc1ccc(NC(=S)Nc2ccc(S(=O)(=O)Nc3ccc(Cl)cc3)cc2)cc1OC [AD4-12525] | 12.2
26 | 31.9587 | 26.9 | COc1ccc(NC(=S)Nc2ccc(S(=O)(=O)Nc3ccccc3C)cc2)cc1OC [AD4-12527] | 20
27 | 123.946 | 5.43 | O=S(=O)(Nc1cc(Cl)cc(Cl)c1)c1ccc(NC(=S)Nc2ccc(Cl)c(Cl)c2)cc1 [AD4-12528] | 5.3
28 | 63.9249 | 6.35 | CCOc1ccc(NC(=S)Nc2ccc(S(=O)(=O)Nc3cc(Cl)cc(Cl)c3)cc2)cc1 [AD4-12529] | 6.47
29 | 30.7051 | 35.4 | COc1ccccc1NS(=O)(=O)c1ccc(NC(=S)Nc2ccc(OC)c(OC)c2)cc1 [AD4-12537] | 38.6
30 | 42.3275 | 8.88 | COC(=O)c1sc2cc(NC(=S)Nc3ccc(S(=O)(=O)Nc4c(C)cc(C)cc4C)cc3)ccc2c1Cl [AD4-12560] | 5.23
31 | 29.4151 | 6.62 | COc1ccc(NS(=O)(=O)c2ccc(NC(=S)Nc3ccccc3C(F)(F)F)cc2)cc1 [AD4-12577] | 5.92
32 | 57.4272 | 7 | O=S(=O)(Nc1ccccc1)c1ccc(NC(=S)Nc2ccc(Cl)cc2)cc1 [AD4-12783] | 7.62
33 | 49.531 | 4.74 | CCC(C)c1ccc(NC(=S)Nc2ccc(S(=O)(=O)Nc3ccccc3)cc2)cc1 (stereo not drawn) [AD4-12798] | 5.69
34 | 26.1431 | 11.8 | CC1CCc2cc(F)ccc2N1S(=O)(=O)c1ccc(NC(=S)Nc2ccc(Br)cc2)cc1 (stereo not drawn) [AD4-12813] | 13.6
35 | 47.471 | 5.98 | CC(C)c1ccc(NC(=S)Nc2ccc(S(=O)(=O)Nc3ccccc3)cc2)cc1 [AD4-12820] | 5.93
36 | 51.4082 | 6.92 | O=S(=O)(Nc1ccccc1)c1ccc(NC(=S)Nc2ccc(Cl)cc2Cl)cc1 [AD4-12822] | 7.04
37 | 30.8167 | 4.07 | CCCCc1ccc(NC(=S)Nc2ccc(S(=O)(=O)Nc3ccccc3)cc2)cc1 [AD4-12823] | 4.06
38 | 26.7866 | 6.78 | CC(=O)c1cccc(NC(=S)Nc2ccc(S(=O)(=O)N3c4ccc(F)cc4CCC3C)cc2)c1 (stereo not drawn) [AD4-12825] | 5.46
39 | 45.9206 | 6.49 | CC1CCc2cc(F)ccc2N1S(=O)(=O)c1ccc(NC(=S)Nc2ccc(Cl)c(Cl)c2)cc1 (stereo not drawn) [AD4-12827] | 6.4
40 | 32.6456 | 26.6 | CC1CCc2cc(F)ccc2N1S(=O)(=O)c1ccc(NC(=S)Nc2ccc3c(c2)OCO3)cc1 (stereo not drawn) [AD4-12828] | 63.4
